Assay results: the supplement of paper PMC4932681
Structures can show the parent of a compound that is named as a salt.

Key:
Assay in all cases: viability inhibition at highest dose (% inhibition); higher = more growth inhibition
BT-474 = conditions: 72 h
Description: (§1)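 Percent inhibition of viability (CellTiter-Glo, 72 h) at the highest tested concentration (D5), normalised to DMSO (0%) and 100 µM benzethonium chloride (100%). Resistant lines and the 'in 1µM tamoxifen' arms were tested in 1 µM 4-OH-tamoxifen.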

BT-474 Tam2 = conditions: 4-OH-tamoxifen in medium 1 µM; 72 h
Description: as §1

T-47D = conditions: 72 h
Description: as §1

ZR-75-1 Tam2 = conditions: 4-OH-tamoxifen in medium 1 µM; 72 h
Description: as §1

ZR-75-1 Tam1 = conditions: 4-OH-tamoxifen in medium 1 µM; 72 h
Description: as §1

MCF-7 Tam1 = conditions: 4-OH-tamoxifen in medium 1 µM; 72 h
Description: as §1

ZR-75-1 = conditions: 72 h
Description: as §1

MCF-7 = conditions: 72 h
Description: as §1

BT-474 Tam1 = conditions: 4-OH-tamoxifen in medium 1 µM; 72 h
Description: as §1

T-47D Tam1 = conditions: 4-OH-tamoxifen in medium 1 µM; 72 h
Description: as §1

T-47D Tam2 = conditions: 4-OH-tamoxifen in medium 1 µM; 72 h
Description: as §1

Structure (SMILES) | viability inhibition at highest dose (BT-474; 4-OH-tamoxifen in medium 0 µM) | viability inhibition at highest dose (BT-474; 4-OH-tamoxifen in medium 1 µM) | viability inhibition at highest dose (BT-474 Tam2) | viability inhibition at highest dose (T-47D; 4-OH-tamoxifen in medium 0 µM) | viability inhibition at highest dose (T-47D; 4-OH-tamoxifen in medium 1 µM) | viability inhibition at highest dose (ZR-75-1 Tam2) | viability inhibition at highest dose (ZR-75-1 Tam1) | viability inhibition at highest dose (MCF-7 Tam1) | viability inhibition at highest dose (ZR-75-1; 4-OH-tamoxifen in medium 0 µM) | viability inhibition at highest dose (ZR-75-1; 4-OH-tamoxifen in medium 1 µM) | viability inhibition at highest dose (MCF-7; 4-OH-tamoxifen in medium 0 µM) | viability inhibition at highest dose (MCF-7; 4-OH-tamoxifen in medium 1 µM) | viability inhibition at highest dose (BT-474 Tam1) | viability inhibition at highest dose (T-47D Tam1) | viability inhibition at highest dose (T-47D Tam2)
CC[C@@H]1C(=O)N(C)c2cnc(Nc3ccc(C(=O)N[C@H]4CC[C@H](N5CCN(CC6CC6)CC5)CC4)cc3OC)nc2N1C(C)C [Volasertib (BI 6727)] (drug 1000 nM) | 13.2 | 25.5 | 9.62 | 30.8 | -1.17 | 18.7 | 18.7 | 0.498 | 7.01 | 16.1 | 24.2 | 24.7 | 26 | 24.6 | 21.4
COc1ccc(S(=O)(=O)Nc2cccnc2Nc2ccc(O)cc2)cc1 [ABT-751] (drug 10000 nM) | 42.6 | 73.1 | 54.2 | -0.891 | 2.69 | 18.6 | 4.33 | 1.63 | 36.3 | 14.9 | 50.3 | 44.6 | 64.7 | 58.6 | 38.3
COCC1(CO)C(=O)C2CCN1CC2 (stereo not given) [Prima-1 Met] (drug 10000 nM) | -9.27 | -13.3 | 0.869 | -7.38 | -11.1 | 17.7 | -1.64 | -10.1 | -1.59 | -9.16 | 10.8 | 3.83 | -5.47 | 1.75 | -9.64
CCCS(=O)(=O)Nc1ccc(F)c(C(=O)c2c[nH]c3ncc(-c4ccc(Cl)cc4)cc23)c1F [Vemurafenib (PLX4032)] (drug 10000 nM) | -0.692 | 16.2 | -15 | -10.9 | 17.5 | 0.975 | 8.49 | 3.76 | -0.616 | 10.2 | 7.54 | -8.65 | -8.2 | -8.15 | 21.7
CN(Cc1cnc2nc(N)nc(N)c2n1)c1ccc(C(=O)N[C@@H](CCC(=O)O)C(=O)O)cc1 [Methotrexate] (drug 10000 nM) | -11.3 | -21.2 | 2.17 | -7.44 | -4.13 | 10.5 | 15.9 | 14.2 | 22.8 | 2.09 | 18.8 | 29.1 | -17.3 | -0.232 | 6.27
Oc1ncc(N(CCCl)CCCl)c(O)n1 [Uracil mustard] (drug 10000 nM) | -4.25 | -3.71 | 6.63 | -4.46 | -6.35 | 2.56 | 3.73 | -4.85 | 0.272 | -3.68 | -11.6 | 11.6 | 6.37 | -0.922 | 1.54
C#Cc1cccc(Nc2ncnc3cc(OCCOC)c(OCCOC)cc23)c1 [Erlotinib] (drug 10000 nM) | 43 | 94.5 | 87.1 | 20.8 | 9 | 10.9 | 14.6 | 12.5 | 3.58 | 12.2 | 4.3 | 0.353 | 94.4 | 39.8 | 40
O=NN(CCCl)C(=O)NCCCl [Carmustine] (drug 10000 nM) | -6.34 | -3.07 | 4.36 | -12.6 | -5.73 | 0.516 | -2.37 | -12.7 | -12.9 | -8.4 | -2.85 | 5.33 | -0.31 | 0.948 | 2.64
Cc1ccc([N+](=O)[O-])cc1S(=O)(=O)N(C)/N=C/c1cnc2ccc(Br)cn12 [PIK-75 (HCl)] (drug 10000 nM) | 97.9 | 97.7 | 98.6 | 60.4 | 56.9 | 83.9 | 88.8 | 81.4 | 80 | 71 | 64.9 | 85.5 | 99.3 | 91.4 | 83.6
Nc1ccccc1NC(=O)c1ccc(CNC(=O)OCc2cccnc2)cc1 [Entinostat] (drug 10000 nM) | 61.4 | 83.9 | 53.2 | 66.4 | 36.6 | 27.5 | 28.8 | 5.52 | 33.7 | 10.2 | 62.3 | 40.4 | 79 | 60.3 | 10.9
O=C(/C=C/c1cccc(S(=O)(=O)Nc2ccccc2)c1)NO [Belinostat  (PXD101)] (drug 10000 nM) | 91.3 | 97.1 | 77.2 | 95.6 | 94.8 | 51.5 | 39.5 | 22.8 | 38.9 | 38.7 | 89.5 | 86.8 | 89 | 92 | 70.4
N#CCNC(=O)c1ccc(-c2ccnc(Nc3ccc(N4CCOCC4)cc3)n2)cc1 [Momelotinib (CYT-387)] (drug 10000 nM) | 3.98 | -26.5 | 31.1 | 22.8 | 17.9 | 8.52 | 7.45 | 43.1 | 6.2 | 5.38 | 48.5 | 69 | 38.6 | 39.2 | 40
Cc1cccc(-c2nn3c(c2-c2ccnc4ccc(C(N)=O)cc24)CCC3)n1 (drug 1000 nM) | -8.01 | -14 | -0.548 | -10.5 | -3.66 | 0.591 | -1.45 | -5.09 | -10.5 | -14.4 | -2 | 17.5 | -3.5 | 8.11 | -11.8
